{
  "source": "patent US10166253B2",
  "about": "“Positively charged co-polymers for use as antimicrobial agents” (priority 2014, dated 2019)",
  "key": {"[1]": {"system": "S. aureus (Wood 46, NCTC 7121)", "assay": "Colony-forming unit (CFU) counting", "assay_type": "cell-based, Staphylococcus aureus", "conditions": "30 minutes at 37° C. in PBS", "method": "Late-log phase E. coli (strain NCTC 10418), P. aeruginosa (strain PAO1, ATCC 15692) and S. aureus (Wood 46, NCTC 7121) were resuspended in PBS and treated with different concentrations of glatiramer acetate (GA) or LL-37 (Innovagen, Lund, Sweden) and incubated on a shaker for 30 minutes at 37° C. Subsequently, a dilution series was performed to achieve a suitable amount of bacteria on the 5% blood agar plates. The 5% blood agar streak plates were cultured at 37° C. for 16 h and the resulting CFUs on the blood agar plates were imaged with a digital camera and counted with the aid of the software ImageJ 1.48v."}, "P. aeruginosa (PAO1) [2]": {"system": "P. aeruginosa (PAO1)", "assay": "Transmission electron microscopy of treated bacteria", "assay_type": "cell-based, Pseudomonas aeruginosa", "text": "Transmission electron microscopy (TEM) was applied to examine the ultrastructural changes in P. aeruginosa (PAO1), S. aureus (Wood 46) and E. coli (NCTC 10418) induced after treatment with GA and LL-37. […] This critical alteration in the outer membrane of E. coli has previously been described as a disintegration of the outer membrane into micelles and vesicle-like structures (Meincken, M., D. L. Holroyd, and M. Rautenbach, Atomic force microscopy study of the effect of antimicrobial peptides on the cell envelope of Escherichia coli. Antimicrob Agents Chemother, 2005. 49(10): p. 4085-92). […] After incubation with LL-37 and GA, we found burst cells, but this observation was most significant after treatment with LL-37 (FIG. 9). Scale bar, 0.5 μm. Experiments were performed as 2 replicates."}, "[3]": {"system": "multi-resistant P. aeruginosa strain (CCUG59626)", "assay": "Flow cytometry viability assay on multiresistant strain", "assay_type": "cell-based, Pseudomonas aeruginosa", "conditions": "CCUG59626, ~10^8 cells/ml", "method": "A multi-resistant P. aeruginosa strain (CCUG59626) (˜10^8 cells/ml) was incubated with varying concentrations of GA and LL-37. […] All experiments were performed as four replicates."}, "P. aeruginosa (PAO1) [4]": {"system": "P. aeruginosa (PAO1)", "assay": "Binding of Alexa Fluor 488-labeled GA to bacteria (MFI by flow cytometry)", "set-up": "species or system Pseudomonas aeruginosa", "conditions": "PBS + 50 mM NaCl, total salt 200 mM, GA 50 and 10 μg/ml", "method": "GA was diluted in freshly made 0.1 M NaHCO3 and labeled with Alexa Fluor 488 according to manufacturer's instruction. Late-log phase E. coli (strain NCTC 10418), P. aeruginosa (strain PAO1, ATCC 15692) and S. aureus (Wood 46, NCTC 7121) were resuspended in PBS or PBS supplemented with 50 mM NaCl; treated with either 50 μg/ml or 10 μg/ml Alexa Fluor® 488-labeled GA and incubated on a shaker at 37° C. for 30 minutes. Hereafter, bacteria were diluted 1:100 in PBS and analyzed on a Novocyte™ flow cytometer.\nThis constitutes a problem when for example treating patients with cystic fibrosis. These patients have a high salt concentration in their lungs of about 150-200 mM, and it is therefore critical that drugs used for treating these patients are active at such high salt concentrations (Gilljam H et al., Scand J Clin Lab Invest. 1989 April; 49(2):121-4). Therefore, the binding capacity of GA to bacteria resuspended in PBS or in PBS supplemented with 50 mM NaCl. PBS+50 mM NaCl results in a total salt concentration of 200 mM. […]\nMean Fluorescence intensities (MFI) were assessed by flow cytometry to quantify the binding capacity of GA to the bacterial membrane. […]"}, "P. aeruginosa (PAO1) [5]": {"system": "P. aeruginosa (PAO1)", "assay": "Antimicrobial activity in human serum and plasma (flow cytometry, PI/Syto9)", "assay_type": "cell-based, Pseudomonas aeruginosa", "conditions": "P. aeruginosa PAO1 ~10^8 cells/ml", "text": "It has been reported that the antimicrobial activity of antimicrobial peptides are inhibited by their binding to different factors in human plasma (Wang, Y., et al., Apolipoprotein A-I binds and inhibits the human antibacterial/cytotoxic peptide LL-37. J Biol Chem, 1998. 273(50): p. 33115-8), serum and is influenced by pH and ion composition (Johansson, J., et al., Conformation-dependent antibacterial activity of the naturally occurring human peptide LL-37. J Biol Chem, 1998. 273(6): p. 3718-24). To investigate the potential of GA for systemic application, bacterial isolates of P. aeruginosa (PAO1, ˜10^8 cells/ml) were incubated with increasing concentrations of GA and compared to LL-37. Bacterial survival and enumeration was evaluated by a flow cytometry bead standard and stained with propidium iodide and Syto9 following procedures as previously described above in the antimicrobial susceptibility testing by flow cytometry-based assay. […] All experiments were performed as four replicates."}},
  "data": [
    {"substance": "Glatiramer acetate [GA]", "values": [
      {"measurement": "antibacterial effect by CFU counting (in words)", "setting": "[1]", "value": "low antimicrobial impact"},
      {"measurement": "ultrastructural changes (TEM, in words)", "setting": "P. aeruginosa (PAO1) [2]", "value": "dramatically reduced number of P. aeruginosa"},
      {"measurement": "susceptibility of multiresistant strain (in words)", "setting": "[3]", "value": "highly susceptible"},
      {"measurement": "binding capacity to bacteria (MFI, in words)", "setting": "P. aeruginosa (PAO1) [4]", "value": "retained its binding capacity"},
      {"measurement": "antimicrobial activity in human plasma and serum (in words)", "setting": "P. aeruginosa (PAO1) [5]", "value": "retains antimicrobial activity"}
    ]}
  ]
}
